Reference: ChEMBL document CHEMBL4184237, “Cytotoxic oligophenols from the rhizome of Wikstroemia indica” (Bioorg Med Chem Lett, 2018)
Values belong to the compound of their own block, whether it stands above or below them.

Tests used:
[1] = system: SW480; assay: Induction of apoptosis in human SW480 cells assessed as Bax protein level incubated for 48 hrs by Western blot analysis relative to untreated control; format: functional
[2] = system: SW480; assay: Cytotoxicity against human SW480 cells assessed as reduction in cell viability incubated for 24 hrs by CCK8 assay; format: functional, cell-based; conditions: SW480, 24 h
[3] = system: T98G; assay: Effect on GAPDH protein expression human T98G cells assessed as GAPDH protein level incubated for 48 hrs by Western blot analysis relative to untreated control; format: ADME, cell-based
[4] = system: T98G; assay: Cytotoxicity against human T98G cells assessed as reduction in cell viability incubated for 24 hrs by CCK8 assay; format: functional, cell-based
[5] = system: SW480; assay: Induction of apoptosis in human SW480 cells assessed as late apoptotic cells level incubated for 48 hrs by Annexin V-FITC and PI double staining based flow cytometry (reference value: 2.09%); format: functional
[6] = system: HCT-116; assay: Cytotoxicity against human HCT116 cells assessed as reduction in cell viability incubated for 24 hrs by CCK8 assay; format: functional, cell-based; conditions: HCT-116, 24 h
[7] = system: T98G; assay: Induction of apoptosis in human T98G cells assessed as necrotic cells level incubated for 48 hrs by Annexin V-FITC and PI double staining based flow cytometry (reference value: 1.66%); format: functional
[8] = system: SW480; assay: Induction of apoptosis in human SW480 cells assessed as Bcl-xL protein level incubated for 48 hrs by Western blot analysis relative to untreated control; format: functional
[9] = system: T98G; assay: Induction of apoptosis in human T98G cells assessed as late apoptotic cells level incubated for 48 hrs by Annexin V-FITC and PI double staining based flow cytometry (reference value: 5.35%); format: functional
[10] = system: U-87 MG; assay: Cytotoxicity against human U87 cells assessed as reduction in cell viability incubated for 24 hrs by CCK8 assay; format: functional, cell-based, U-87MG ATCC
[11] = system: SW480; assay: Effect on GAPDH protein expression human SW480 cells assessed as GAPDH protein level incubated for 48 hrs by Western blot analysis relative to untreated control; format: ADME, cell-based; conditions: sw480, 48 h
[12] = system: SW480; assay: Induction of apoptosis in human SW480 cells assessed as early apoptotic cells level incubated for 48 hrs by Annexin V-FITC and PI double staining based flow cytometry (reference value: 2.75%); format: functional
[13] = system: SW480; assay: Induction of apoptosis in human SW480 cells assessed as viable cells level incubated for 48 hrs by Annexin V-FITC and PI double staining based flow cytometry (reference value: 93.2%); format: functional
[14] = system: T98G; assay: Induction of apoptosis in human T98G cells assessed as viable cells level incubated for 48 hrs by Annexin V-FITC and PI double staining based flow cytometry (reference value: 91.3%); format: functional
[15] = system: T98G; assay: Induction of apoptosis in human T98G cells assessed as early apoptotic cells level incubated for 48 hrs by Annexin V-FITC and PI double staining based flow cytometry (reference value: 1.79%); format: functional
[16] = system: T98G; assay: Induction of apoptosis in human T98G cells assessed as Bax protein level incubated for 48 hrs by Western blot analysis relative to untreated control; format: functional
[17] = system: SW480; assay: Induction of apoptosis in human SW480 cells assessed as necrotic cells level incubated for 48 hrs by Annexin V-FITC and PI double staining based flow cytometry (reference value: 1.17%); format: functional
[18] = system: T98G; assay: Induction of apoptosis in human T98G cells assessed as Bcl-xL protein level incubated for 48 hrs by Western blot analysis relative to untreated control; format: functional

Compound: O=c1c(-c2c(O)cc3c(c2O)C[C@@H](O)[C@H](c2ccc(O)cc2)O3)c(-c2ccc(O)cc2)oc2cc(O)cc(O)c12
fold change (FC) [1]: 2.3
IC50 [2]: 17.9 µM
fold change (FC) [3]: 1
IC50 [4]: 30.6 µM
Activity [5]: 12.9%
IC50 [6]: 24.4 µM
Activity [7]: 1.36%
fold change (FC) [8]: 0.8
Activity [9]: 25.4%
IC50 [10]: 35.7 µM
fold change (FC) [11]: 0.9
Activity [12]: 34.2%
Activity [13]: 51.6%
Activity [14]: 62.9%
Activity [15]: 10.3%
fold change (FC) [16]: 3.4
Activity [17]: 1.31%
fold change (FC) [18]: 0.7

Compound: O=c1ccc2ccc(Oc3cc4ccc(O[C@@H]5O[C@H](CO)[C@@H](O)[C@H](O)[C@H]5O)c(-c5c(O)ccc6ccc(=O)oc56)c4oc3=O)cc2o1
IC50 [2]: > 100 µM
IC50 [4]: > 100 µM
IC50 [6]: > 100 µM
IC50 [10]: > 100 µM

Compound: CC(=O)O[C@H]1C(=O)[C@@]2(C)[C@H]([C@H](OC(=O)c3ccccc3)[C@]3(O)C[C@H](OC(=O)[C@H](O)[C@@H](NC(=O)c4ccccc4)c4ccccc4)C(C)=C1C3(C)C)[C@]1(OC(C)=O)CO[C@@H]1C[C@@H]2O [PACLITAXEL]
IC50 [2]: 0.19 µM
IC50 [4]: 0.74 µM
Activity [5]: 14.7%
Activity [7]: 3.23%
Activity [9]: 56.2%
IC50 [10]: 4.67 µM
Activity [12]: 45.6%
Activity [13]: 33.6%
Activity [14]: 25.6%
Activity [15]: 15%
Activity [17]: 1.13%

Further lines, with some results ahead:

fold change (FC) [3]: 1
fold change (FC) [11]: 1
Compound: O=c1c(-c2c(O)cc3c(c2O)C[C@H](O)[C@H](c2ccc(O)c(O)c2)O3)c(-c2ccc(O)cc2)oc2cc(O)cc(O)c12
fold change (FC) [1]: 1.9
IC50 [2]: 71 µM
IC50 [4]: 83.5 µM
Activity [5]: 13.7%
IC50 [6]: 87.6 µM
Activity [7]: 1.55%
fold change (FC) [8]: 0.6
Activity [9]: 15%
IC50 [10]: 88.4 µM
Activity [12]: 18.5%
Activity [13]: 64.8%
Activity [14]: 79.4%
Activity [15]: 4.11%
fold change (FC) [16]: 4.1
Activity [17]: 2.87%
fold change (FC) [18]: 0.4

fold change (FC) [3]: 0.9
fold change (FC) [11]: 1
Compound: O=c1c(-c2c(O)cc3c(c2O)C[C@@H](O)[C@@H](c2ccc(O)c(O)c2)O3)c(-c2ccc(O)cc2)oc2cc(O)cc(O)c12
fold change (FC) [1]: 2.4
IC50 [2]: 30.4 µM
IC50 [4]: 27.3 µM
Activity [5]: 9.3%
IC50 [6]: 28.7 µM
Activity [7]: 1.15%
fold change (FC) [8]: 0.7
Activity [9]: 17.2%
IC50 [10]: 32.5 µM
Activity [12]: 21.7%
Activity [13]: 68.1%
Activity [14]: 63.9%
Activity [15]: 17.8%
fold change (FC) [16]: 3.8
Activity [17]: 0.909%
fold change (FC) [18]: 0.7
